Assay results published in patent publication US11584755B2 (IDEAYA BIOSCIENCES, INC., priority 2017, dated 2023).
pIC50: −log10 of the molar value.

Columns and labels:
hFEN1 = hFEN1 (Homo sapiens (Human), UniProt P39748); assay: Enzymatic IC50 assay, FAM-labeled DNA oligomer substrate, fluorescence intensity (FEN1); format: biochemical; conditions: hFEN1 70 pM, substrate 100 nM, reaction time 20 minutes, 23° C.
Experimental: (§1) FEN1, EXO1 or XPG enzyme was incubated with compound or vehicle (DMSO) and the FAM-labeled DNA oligomer substrate in a microtiter plate. The stop buffer contains EDTA to stop the enzymatic reaction. The plate is read for fluorescence intensity. The high control (DMSO) with high fluorescence intensity represents no inhibition of enzymatic reaction while the low control (10 μM) with low fluorescence intensity represents full inhibition of enzymatic reaction.
(§2) • FEN1 • hFEN1: 70 pM • Substrate: 100 nM • Reaction time: 20 minutes • EXO1 • hEXO1: 6 nM, Isoforml • Substrate: 30 nM • Reaction time: 60 minutes • XPG • hXPG: 100 nM • Substrate: 100 nM • Reaction time: 120 minutes
(§3) Annealing Buffer: 50 mM Tris-HCl, 50 mM NaCl, 1 mM DTT Assay buffer: 50 mM Tris-HCl pH 8.0, 10 mM MgCl2, 0.01% BSA, 1 mM DTT Stop buffer: 50 mM EDTA in assay buffer Temperature: 23° C. Total volume: 40 μl Controls: • 0% inhibition control: DMSO • 100% inhibition control: 10 μM (final) 5-chloro-3-hydroxy-1,3-dihydroquinazoline-2,4-dione Enzyme Reaction and Detection: • 1. Prepare 25 μM intermediate stock of the substrate by diluting SEQ ID NO:1, SEQ ID NO:2, and SEQ ID NO:3 in annealing buffer, in a PCR tube. • 2. Place the PCR tube on a heat block, heat at 95° C. for 3 minutes, then drop in 0.2° C. increments over 2 minutes, stopping at 25° C. • 3. Remove the tube and let the tube cool at room temperature. • 4. Transfer 10 μL of 3× final concentration test compounds or DMSO to the appropriate wells of a microtiter plate. • 5. Transfer 10 μL of 3× final concentration enzyme in assay buffer or assay buffer alone to the appropriate wells. • 6. Incubate the plate at room temperature for 15 minutes. • 7. Transfer 10 μL of 3× substrate in assay buffer to all the test wells. • 8. Incubate the plate at room temperature for prescribed reaction time. • 9. Centrifuge the plate at 1000 rpm for 1 minute. • 10. Transfer 10 μL of stop buffer to all the test wells. • 11. Centrifuge the plate at 1000 rpm for 1 minute. • 12. Read the plate on a plate reader.

hEXO1, Isoform1 = hEXO1, Isoform1 (Homo sapiens (Human), UniProt Q9UQ84); assay: Enzymatic IC50 assay, FAM-labeled DNA oligomer substrate, fluorescence intensity (EXO1); format: biochemical; conditions: hEXO1 6 nM, substrate 30 nM, reaction time 60 minutes, 23° C.
Chain of hEXO1, Isoform1 (Q9UQ84 whole entry, canonical isoform): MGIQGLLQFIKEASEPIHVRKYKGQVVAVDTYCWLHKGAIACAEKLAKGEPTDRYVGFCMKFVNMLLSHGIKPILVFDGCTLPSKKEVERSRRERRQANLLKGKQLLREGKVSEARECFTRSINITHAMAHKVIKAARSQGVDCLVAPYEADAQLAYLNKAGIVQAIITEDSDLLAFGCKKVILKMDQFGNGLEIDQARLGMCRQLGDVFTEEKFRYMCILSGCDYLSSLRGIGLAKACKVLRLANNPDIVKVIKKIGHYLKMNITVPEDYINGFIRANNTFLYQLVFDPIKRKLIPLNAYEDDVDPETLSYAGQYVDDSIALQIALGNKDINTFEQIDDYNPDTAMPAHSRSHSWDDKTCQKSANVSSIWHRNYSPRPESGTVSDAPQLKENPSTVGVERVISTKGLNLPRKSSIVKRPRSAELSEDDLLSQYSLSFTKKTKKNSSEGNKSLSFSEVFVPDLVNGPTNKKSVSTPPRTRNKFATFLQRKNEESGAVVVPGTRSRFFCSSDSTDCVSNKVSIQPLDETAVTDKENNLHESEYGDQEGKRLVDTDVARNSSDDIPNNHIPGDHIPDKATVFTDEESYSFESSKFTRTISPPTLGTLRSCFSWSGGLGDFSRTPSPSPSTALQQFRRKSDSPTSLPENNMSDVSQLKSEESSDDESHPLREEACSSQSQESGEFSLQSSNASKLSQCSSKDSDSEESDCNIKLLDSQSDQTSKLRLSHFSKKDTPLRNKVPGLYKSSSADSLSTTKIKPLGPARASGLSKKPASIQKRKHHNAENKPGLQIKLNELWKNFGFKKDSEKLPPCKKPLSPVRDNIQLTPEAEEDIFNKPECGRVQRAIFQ
Experimental: as §1, §2, §3

Chain of hFEN1 (P39748 whole entry): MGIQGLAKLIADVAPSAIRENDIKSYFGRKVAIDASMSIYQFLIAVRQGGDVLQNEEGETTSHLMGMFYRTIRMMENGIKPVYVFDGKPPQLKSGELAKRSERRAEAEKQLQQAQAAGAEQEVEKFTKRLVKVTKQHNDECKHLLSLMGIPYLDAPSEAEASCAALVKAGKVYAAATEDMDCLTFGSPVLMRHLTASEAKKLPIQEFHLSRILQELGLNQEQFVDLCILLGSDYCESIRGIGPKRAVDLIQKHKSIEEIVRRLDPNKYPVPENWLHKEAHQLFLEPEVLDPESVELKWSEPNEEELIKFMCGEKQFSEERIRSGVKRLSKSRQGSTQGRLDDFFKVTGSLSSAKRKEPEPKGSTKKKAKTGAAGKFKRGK

SMILES | pIC50 (hFEN1) | pIC50 (hEXO1, Isoform1)
O=C(O)c1c(O)c(=O)n(CC2CCCNC2)c2ccsc12 (stereo not drawn) [Example 62, 6-hydroxy-5-oxo-4-(piperidin-3-ylmethyl)-4,5-dihydrothieno[3,2-b]pyridine-7-carboxylic acid] | 5.00 to 5.65 | 5.00 to 5.65
CC(=O)N1CCC(Cn2c(=O)c(O)c(C(=O)O)c3sccc32)CC1 [Example 9, 4-[(1-acetyl-4-piperidyl)methyl]-6-hydroxy-5-oxo-thieno[3,2-b]pyridine-7-carboxylic acid] | 5.00 to 5.65 | 5.00 to 5.65
COc1ccc(Cn2c(=O)c(O)c(C(=O)O)c3sccc32)cc1NC(C)=O [Example 89, 4-(3-acetamido-4-methoxybenzyl)-6-hydroxy-5-oxo-4,5-dihydrothieno[3,2-b]pyridine-7-carboxylic acid] | 6.12 to 6.60 | –
O=C(O)c1c(O)c(=O)n(Cc2cccc(OC(F)(F)F)c2)c2ccsc12 [Example 55, 6-hydroxy-5-oxo-4-(3-(trifluoromethoxy)benzyl)-4,5-dihydrothieno[3,2-b]pyridine-7-carboxylic acid] | 5.65 to 6.12 | –
CNC(=O)c1ccc(Cn2c(=O)c(O)c(C(=O)O)c3sccc32)cc1 [Example 67, 6-hydroxy-4-(4-(methylcarbamoyl)benzyl)-5-oxo-4,5-dihydrothieno[3,2-b]pyridine-7-carboxylic acid] | 6.12 to 6.60 | –
O=C(O)c1c(O)c(=O)n(Cc2cnn(-c3ccc(Cl)cc3)c2)c2ccsc12 [Example 105, 4-{[1-(4-chlorophenyl)-1H-pyrazol-4-yl]methyl}-6-hydroxy-5-oxo-4,5-dihydrothieno[3,2-b]pyridine-7-carboxylic acid] | 6.12 to 6.60 | –
COc1ccc(Cn2c(=O)c(O)c(C(=O)O)c3sccc32)cc1OC [Example 71, 4-(3,4-dimethoxybenzyl)-6-hydroxy-5-oxo-4,5-dihydrothieno[3,2-b]pyridine-7-carboxylic acid] | 6.12 to 6.60 | –
O=C(O)c1c(O)c(=O)n(Cc2ccc(Cl)c(Cl)c2)c2ccsc12 [Example 59, 4-(3,4-dichlorobenzyl)-6-hydroxy-5-oxo-4,5-dihydrothieno[3,2-b]pyridine-7-carboxylic acid] | 6.12 to 6.60 | –
O=C(O)c1c(O)c(=O)n(Cc2nnc(-c3ccccc3)s2)c2ccsc12 [Example 93, 6-hydroxy-5-oxo-4-[(5-phenyl-1,3,4-thiadiazol-2-yl)methyl]-4,5-dihydrothieno[3,2-b]pyridine-7-carboxylic acid] | > 6.70 | –
O=C(O)c1c(O)c(=O)n(Cc2cnn(Cc3cncnc3)c2)c2ccsc12 [Example 135, 6-hydroxy-5-oxo-4-{[1-(pyrimidin-5-ylmethyl)-1H-pyrazol-4-yl]methyl}-4,5-dihydrothieno[3,2-b]pyridine-7-carboxylic acid] | > 6.70 | –
O=C(O)c1c(O)c(=O)n(Cc2cn3ccccc3n2)c2ccsc12 [Example 102, 6-hydroxy-4-(imidazo[1,2-a]pyridin-2-ylmethyl)-5-oxo-4,5-dihydrothieno[3,2-b]pyridine-7-carboxylic acid] | 5.65 to 6.12 | –
O=C(O)c1c(O)c(=O)n(Cc2cccc(F)c2)c2ccsc12 [Example 11, 4-(3-fluorobenzyl)-6-hydroxy-5-oxo-4,5-dihydrothieno[3,2-b]pyridine-7-carboxylic acid] | 6.12 to 6.60 | –
CS(=O)(=O)COc1ccc(Cn2c(=O)c(O)c(C(=O)O)c3sccc32)cc1 [Example 153, 6-hydroxy-4-{4-[(methylsulfonyl)methoxy]benzyl}-5-oxo-4,5-dihydrothieno[3,2-b]pyridine-7-carboxylic acid] | 6.12 to 6.60 | –
O=C(O)c1c(O)c(=O)n(Cc2cnn(CC(=O)N3CC[C@@H](O)C3)c2)c2ccsc12 [Example 27, 6-hydroxy-4-[(1-{2-[(3R)-3-hydroxypyrrolidin-1-yl]-2-oxo-ethyl}pyrazol-4-yl)methyl]-5-oxo-thieno[3,2-b]pyridine-7-carboxylic acid] | > 6.70 | –
CC(=O)Nc1ccc(Cn2c(=O)c(O)c(C(=O)O)c3sccc32)cc1Cl [Example 14, 4-(4-acetamido-3-chlorobenzyl)-6-hydroxy-5-oxo-4,5-dihydrothieno[3,2-b]pyridine-7-carboxylic acid] | 5.65 to 6.12 | –
O=C(O)c1c(O)c(=O)n(Cc2cnn(CC3CCS(=O)(=O)CC3)c2)c2ccsc12 [Example 145] | 6.12 to 6.60 | –

SMILES | pIC50 (hFEN1) | pIC50 (hEXO1, Isoform1)
COc1ccccc1Cn1c(=O)c(O)c(C(=O)O)c2sccc21 [Example 64, 6-hydroxy-4-(2-methoxybenzyl)-5-oxo-4,5-dihydrothieno[3,2-b]pyridine-7-carboxylic acid] | 5.00 to 5.65 | –
O=C(O)c1c(O)c(=O)n(Cc2cnn(CC(F)(F)F)c2)c2ccsc12 [Example 137, 6-hydroxy-5-oxo-4-{[1-(2,2,2-trifluoroethyl)-1H-pyrazol-4-yl]methyl}-4,5-dihydrothieno[3,2-b]pyridine-7-carboxylic acid] | > 6.70 | –
N#Cc1ccc(-n2cc(Cn3c(=O)c(O)c(C(=O)O)c4sccc43)cn2)cc1 [Example 110, 4-{[1-(4-cyanophenyl)-1H-pyrazol-4-yl]methyl}-6-hydroxy-5-oxo-4,5-dihydrothieno[3,2-b]pyridine-7-carboxylic acid] | > 6.70 | –
O=C(O)c1c(O)c(=O)n(Cc2ccc(OC(F)(F)F)cc2)c2ccsc12 [Example 56, 6-hydroxy-5-oxo-4-(4-(trifluoromethoxy)benzyl)-4,5-dihydrothieno[3,2-b]pyridine-7-carboxylic acid] | 5.00 to 5.65 | –
O=C(O)c1c(O)c(=O)n(Cc2cnn(-c3ccccc3[N+](=O)[O-])c2)c2ccsc12 [Example 107, 6-hydroxy-4-{[1-(2-nitrophenyl)-1H-pyrazol-4-yl]methyl}-5-oxo-4,5-dihydrothieno[3,2-b]pyridine-7-carboxylic acid] | > 6.70 | –
COc1cc(Cn2cc(Cn3c(=O)c(O)c(C(=O)O)c4sccc43)cn2)ccn1 [Example 129, 6-hydroxy-4-({1-[(2-methoxypyridin-4-yl)methyl]-1H-pyrazol-4-yl}methyl)-5-oxo-4,5-dihydrothieno[3,2-b]pyridine-7-carboxylic acid] | > 6.70 | –
Cc1c(Cn2c(=O)c(O)c(C(=O)O)c3sccc32)cnn1C [Example 159, 4-[(1,5-dimethyl-1H-pyrazol-4-yl)methyl]-6-hydroxy-5-oxo-4,5-dihydrothieno[3,2-b]pyridine-7-carboxylic acid] | – | 5.00 to 5.65
O=C1CC(Cn2c(=O)c(O)c(C(=O)O)c3sccc32)CN1 (stereo not drawn) [Example 76, 6-hydroxy-5-oxo-4-[(5-oxopyrrolidin-3-yl)methyl]-4,5-dihydrothieno[3,2-b]pyridine-7-carboxylic acid] | 6.12 to 6.60 | –
O=C(O)c1c(O)c(=O)n(CC2COc3ccccc3C2)c2ccsc12 (stereo not drawn) [Example 80, 4-(chroman-3-ylmethyl)-6-hydroxy-5-oxo-4,5-dihydrothieno[3,2-b]pyridine-7-carboxylic acid] | 5.00 to 5.65 | –
O=C(O)c1c(O)c(=O)n(CC2CCCOC2)c2ccsc12 (stereo not drawn) [Example 79, 6-hydroxy-5-oxo-4-[(tetrahydro-2H-pyran-3-yl)methyl]-4,5-dihydrothieno[3,2-b]pyridine-7-carboxylic acid] | 5.00 to 5.65 | –
Nc1ccc(-n2cc(Cn3c(=O)c(O)c(C(=O)O)c4sccc43)cn2)cc1 [Example 118, 4-{[1-(4-aminophenyl)-1H-pyrazol-4-yl]methyl}-6-hydroxy-5-oxo-4,5-dihydrothieno[3,2-b]pyridine-7-carboxylic acid] | > 6.70 | –
O=C(O)c1c(O)c(=O)n(Cc2ccc3ccc(=O)[nH]c3c2)c2ccsc12 [Example 77, 6-hydroxy-5-oxo-4-[(2-oxo-1,2-dihydroquinolin-7-yl)methyl]-4,5-dihydrothieno[3,2-b]pyridine-7-carboxylic acid] | 6.12 to 6.60 | –
O=C(O)c1c(O)c(=O)n(CC2CCCO2)c2ccsc12 (stereo not drawn) [Example 8, 6-hydroxy-5-oxo-4-(tetrahydrofuran-2-ylmethyl)thieno[3,2-b]pyridine-7-carboxylic acid] | 5.65 to 6.12 | –
COCCOc1ccc(Cn2c(=O)c(O)c(C(=O)O)c3sccc32)cc1 [Example 152, 6-hydroxy-4-[4-(2-methoxyethoxy)benzyl]-5-oxo-4,5-dihydrothieno[3,2-b]pyridine-7-carboxylic acid] | > 6.70 | –
O=C(O)c1c(O)c(=O)n(Cc2ccccc2Br)c2ccsc12 [Example 35, 4-(2-bromobenzyl)-6-hydroxy-5-oxo-4,5-dihydrothieno[3,2-b]pyridine-7-carboxylic acid] | 5.00 to 5.65 | –
